# Experimental data published in patent US9089521B2, “Method for regulating production of hemoglobin beta chains” (priority 2001, dated 2015).
# What was measured:
# [1] = system: erythroid precursor cells from pediatric sickle cell disease patients; assay: HbS-to-HbF switching in two-phase culture, HPLC of hemoglobins and immuno-HbF fluorescence; type: cell-based, human; details: FIG. 23
# [2] = system: endogenous ferritin-H gene expression in NT-2 (NTERA-2) stem cells; assay: Western blot for ferritin-H in NT-2 cells; type: cell-based, human; details: Western blot after 8 days in the presence of compound vs DMSO-control, FIG. 21
# Experimental: Cell lines. Human NTERA-2 (NT-2) embryonal carcinoma stem cells (ATCC # CRL-1973) were cultured in DMEM medium with 10% FBS and antibiotics.
# Western blots and quantification. Cell lysates (i.e., extracts of human NT-2 cells) were boiled for 3-5 minutes in SDS buffer, layered onto polyacrylamide gels and were run with SDS electrophoresis buffer at 90 volts for 30 minutes. Electrophoresed samples were then placed in 3% BSA buffer and transferred at 80 volts for 2 hours to blotting membranes. A blocking reaction was performed over night with blocking buffer from ECL advance kit (GE Healthcare Bio-Sciences, NJ), followed by incubation for 4 hours in BSA buffer with fluorescent secondary antibody (1:10000) and primary anti ferritin-H (anti-FtH) polyclonal antiserum (1:1000). Ferritin-H detection was achieved using the LI-COR apparatus to visualize the fuorescent bands and Odyssey software to quantify the stained bands of ferritin-H. Isolation and culture of human mononuclear cells and maturation of erythroid precursor cells are diagrammed in FIG. 22. Whole blood was obtained from pediatric sickle cell patients at the time of scheduled transfusion therapy under an approved IRB protocol. […]
# [3] = system: distal promoter of the human β-globin gene (−222/−128); assay: Gel mobility shift assay with distal promoter restriction fragment; type: binding; details: gel retardation assay, FIG. 2a left side
# Text: Proteins and antibodies. Ferritins from human liver (enriched in L chains) and from human heart (enriched in H chains), human transferrin (iron saturated) and apotransferrin, polyclonal (rabbit) antiserum to human spleen ferritin and nonimmune rabbit serum were obtained from Sigma Chemical Company.
# Restriction fragments and oligonucleotides. The 5′ region of the human β-globin gene (from −610 to +20), previously cloned in pSV2CAT, was cut into three fragments by sequential digestions with Hind III and Rsa I. The three fragments, electroeluted from agarose (Maniatis, T., Fritsch, E. F. & Sambrook, J. (1989) Molecular Cloning: A Laboratory Manual (Cold Spring Harbor Laboratory, Cold Spring Harbor, N.Y.), were 416 bp (−638/−223), 147 bp (−127/+20, containing the proximal promoter region), and 95 bp (the Rsa fragment, −222/−128, containing mainly distal promoter sequences). The three fragments were phenol/chloroform treated, dephosphorylated, and end-labelled with 32-P as described (Maniatis, T., Fritsch, E. F. & Sambrook, J. (1989) Molecular Cloning: A Laboratory Manual (Cold Spring Harbor Laboratory, Cold Spring Harbor, N.Y.); Kurien, B. T., Scofield, R. H., & Broyles, R. H. (1997) Anal Biochem 245, 123-126). […]
# [4] = system: partially purified ferritin-protein from K562 nuclei; assay: Competition gel-shift assay with labeled wt −164/−128 oligonucleotide; type: binding, human; details: for excess of unlabeled oligonucleotide needed for significant competition with labeled wt sequence: heated K562 nuclear extract protein, FIG. 4B/4C
# Experimental: Preparation of nuclear extracts. Each nuclear extract preparation was made from two liters of K562 cells (1×10^6 cells/ml) using the procedure of Dignam, Lebovitz, and Roeder (Dignam, J. D., Lebovitz, R. M. & Roeder, R. G. (1983) Nucleic Acids Res 11, 1475-89). Protein content of the extracts ranged from 3 to 6 mg/ml. Extracts enriched 80-90% in ferritin-like protein(s) were prepared by treating the crude extracts with proteinase K and/or heat at 75° C. (Atkinson, B. G., Dean, R. L., Tomlinson, J. & Blaker, T. W. (1989) Biochem Cell Biol 67, 52-7).
# Gel mobility shift assays. Gel retardation assays (i.e., gel shifts) were used to determine DNA binding of the extract proteins to the Rsa I (95 bp) fragment and synthetic oligonucleotides (Berg et al., (1989) Nucleic Acids Res 17, 8833-52; Fried & Crothers (1981) Nucleic Acids Res 9, 6505-25). Each reaction contained 0.5-2 ng of DNA, 1.0-5.0 ug of extract protein, 1.0-5.0 ug of poly dI:poly dC, 100 mM KCl, and binding buffer (Berg et al., (1989) Nucleic Acids Res 17, 8833-52). Unlabeled competitor oligonucleotides ranged from 15- to 2000-fold molar excess and were included in the reaction mixture with the probe before adding protein. Gels used for retardation assays were 4%, 5%, or 6% acrylamide and the running buffer was low ionic strength TAE (Berg et al., (1989) Nucleic Acids Res 17, 8833-52).
# Definition of the binding site with competition gel shifts. To further localize the binding of ferritin, the 37 bp oligonucleotide was mutated in different places, replacing six nucleotides at a time with all A's, all C's, or all G's, with complementary nucleotide replacements in the opposing strand (FIG. 4A). A competition gel shift assay was done with the partially purified protein from heated K562 nuclear extract, in which each of the unlabeled mutant oligos as well as the native sequence was competed against the 32-P-labeled native sequence for binding. All mutants competed for binding as well as the native sequence except those mutated in the −153/−148 region, i.e., mutated in the sequence CAGTGC [SEQ ID NO: 6] (e.g., FIG. 4D). […]
# [5] = system: acute sickle-cell crises; details: stated by The University of Maryland; cited from earlier work
compound,measurement,setting,value
CC1=CC(=O)CC(C)(C)C1(O)/C=C/C(C)=C\C(=O)O (centres unmarked) [abscissic acid],HbS-to-HbF hemoglobin switch,"[1]; administered day 1 of phase II culture with rhEpo, HPLC, observed 23 days to 4 weeks after administration",total switch
same,cellular distribution of HbF production,[1]; immuno-HbF fluorescence,pancellular
same,ferritin-H expression in NT-2 cells,[2],activated ferritin-H expression
"transferrin: human transferrin, another iron-binding protein, Sigma",binding to −222/−128 distal promoter fragment,[3],did not bind
"mutant no. 4: double-stranded −164/−128 oligonucleotide mutated in the −153/−148 CAGTGC sequence, SEQ ID NO: 5 (AACTCCTAAGCAAAAAACAGAAGAGCCAAGGACAGGT; double-stranded competitor oligonucleotide, further chemistry not given here)","concentration required for 50% inhibition of binding of labeled probe, relative to wt sequence",[4]; FIG. 4D,20 fold
same,excess of unlabeled oligonucleotide needed for significant competition with labeled wt sequence,[4],"1,000 fold excess"
"wt: double-stranded wildtype −164/−128 β-globin promoter oligonucleotide, SEQ ID NO: 1 (AACTCCTAAGCCAGTGCCAGAAGAGCCAAGGACAGGT; complementary strand not cited, chemistry not fully specified; listed as Homo sapiens)",excess of unlabeled oligonucleotide needed for significant competition with labeled wt sequence,[4],50 fold excess
NC(=O)NO [Hydroxyurea],patients on whom the agent has no effect,[5],25%
